Measurements as given in patent publication US10787512B2, “Melatonin monoclonal antibody, detection, methods and uses thereof” (SALIMETRICS, LLC, priority 2013, dated 2020).

Tests used:
[1] = system: rabbit monoclonal antibody to Melatonin; test: Cross reactivity in Rapid Melatonin ELISA (competitive, melatonin-HRP); assay type: binding; conditions: tested at 10 to 20-fold above the highest standard (50 pg/ml); predicted value as melatonin divided by actual concentration added
Experimental: A microtitre plate (described below) is coated with the rabbit monoclonal antibody to Melatonin. Melatonin in standards and unknowns competes with Melatonin linked to horseradish peroxidase for the antibody binding sites. After incubation unbound components are washed away. Bound Melatonin peroxidase is measured by the reaction of the peroxidase enzyme on the substrate tetramethylbenzidine (TMB). This reaction produces a blue color. A yellow color is formed after stopping the reaction with 2-molar sulfuric acid. Optical density is read on a standard plate reader at 450 nm. The amount of Melatonin peroxidase detected is inversely proportional to the amount of Melatonin present.
Microwell plates (CoStar High Binder) were coated overnight with 0.5 ug/ml goat anti-rabbit at room temperature [100 uL/well]; Coating Buffer-NaHCO3 (2.93 g)+Na2CO3 (1.59 g) in 1000 ml Water, pH 9.6 under controlled humidity. After washing the plates 3 times in a wash buffer comprised of PBS (phosphate buffered saline) with 0.05% Tween 20, the plates were then coated with the rabbit monoclonal at 10 ng/ml in PBS with 0.01% BSA (bovine serum albumin) overnight at room temperature under controlled humidity. The plates were again washed and coated with 0.5% Stabilcoat (Surmodics) containing 0.1% normal rabbit serum. After approximately 2 hours the plates were aspirated, dried and pouched.
A primary dilution of Melatonin-HRP was made at 50 ug/ml in […]® Conjugate stabilizer (Pierce-Thermo) for storage. At the time of the assay, it is then diluted to 100 ng/ml in a phosphate or Tris Buffered Saline, pH 7.2 with 1% BSA (Diluent).
Melatonin reference material from Cerilliant was diluted in diluent to 50 pg/ml. The standard curve was prepared by making 2× serial dilutions to 0.78 pg/ml in Diluent. Pipette: 100 ul Melatonin Standards/Samples/Controls to each well of the coated microwell plate. Pipette: 50 ul conjugate to each well. Incubate: 3 hr at 2-8° C. or Room Temperature with shaking (˜500 rpm). Wash: 4×300 uL, no soak. Pipette: 100 uL tetramethylbenzidine (TMB). Incubate: Room Temp for 30 min with shaking. Pipette: 50 uL 2M H2SO4. Mix 10-15 seconds. Read Plate: OD 450-630 nm.
Chemical compounds with structural similarity to melatonin were tested at levels 10 to 20-fold higher than the highest standard (50 pg/ml) as samples. The predicted value (as melatonin) was divided by the actual concentration added to calculate % cross-reactivity.

[2] = system: rabbit monoclonal antibody to Melatonin; test: Specificity of Salimetrics Salivary Melatonin kit, cross reactants spiked into saliva; assay type: binding; conditions: spiked into saliva up to 2000 pg/ml; melatonin EC50 (B/Bo=0.5) divided by cross reactant EC50
Experimental: The Salimetrics™ Salivary Melatonin kit is a competitive immunoassay designed and validated for the quantitative measurement of salivary melatonin. The assay format and detection method are illustrated in FIG. 3, and are briefly summarized as follows: A microtitre plate is coated with rabbit monoclonal antibody to melatonin. Melatonin in standards, controls and unknowns compete with melatonin linked to horseradish peroxidase for the antibody binding sites on the microplate. After incubation, unbound components are washed away. Bound melatonin peroxidase is measured by the reaction of the horseradish peroxidase enzyme with the substrate tetramethylbenzidine (TMB). This reaction produces a blue color. A yellow color is formed after stopping the reaction with 2-molar acid solution. Optical density is read on a standard microplate reader at 450 nm-630 nm. The amount of melatonin-tagged peroxidase detected, as measured by the intensity of color, is inversely proportional to the amount of melatonin present in the sample.
Step 2: Keep the desired number of strips in the strip holder and place the remaining strips back in the foil pouch. Reseal the foil pouch with unused wells and desiccant. Store at 2-8° C. […] Step 3: Pipette 8 ml of Melatonin Assay Diluent into a disposable tube. (Scale down proportionally if not using a full plate). Set aside for Step 5. Step 4: Pipette 100 μL, of standards, controls, and unknown samples into appropriate wells. Standards, controls, and unknown samples should be assayed in duplicate. • Pipette 100 μL, of Melatonin Assay Diluent into 2 wells for the 0 Standard. Step 5: Dilute the enzyme conjugate 1:500 by adding 16 μL of the conjugate to the 8 ml of melatonin assay diluent prepared in Step 3. (Scale down proportionally if not using the entire plate.) Conjugate tube may be centrifuged for a few minutes to bring the liquid down to the tube bottom. Immediately mix the diluted conjugate solution and add 50 μL to each well using a multichannel pipette. Step 6: Place adhesive cover (provided) over plate. Mix plate constantly on a plate rotator at 500 rpm and incubate at 2-8° C. for a total of 3 hours. Step 7: Wash the plate 4 times with 1× wash buffer. A plate washer is recommended. However, washing may be done by gently squirting wash buffer into each well with a squirt bottle, or by pipetting 300 μL, of wash buffer into each well and then discarding the liquid by inverting the plate over a sink. After each wash, the plate should be thoroughly blotted on paper towels before turning upright. If using a plate washer, blotting is still recommended after the last wash. Step 8: Add 100 μL of TMB substrate solution to each well with a multichannel pipette. Step 9: Incubate the plate in the dark at room temperature for 30 minutes mixing constantly on a plate rotator at 500 rpm. Step 10: Add 50 μL of 2M stop solution with a multichannel pipette. Step 11: Mix on a plate rotator for 3 minutes at 500 rpm. Spillage may occur if mixing speed exceeds 600 rpm. If green color remains, continue mixing until green color turns to yellow. Be sure all wells have turned yellow. • Wipe off bottom of plate with a water-moistened, lint-free cloth and wipe dry. • Read in a plate reader at 450 nm with a secondary filter at 620 to 630 nm. Performance characteristics are not known without secondary or reference filter. Read the plate within 10 minutes of adding 2M stop solution. High and Low salivary Melatonin controls should be run with each assay. The control ranges established are to be used as a guide. Each laboratory should establish its own range. Variations between laboratories may be caused by differences in techniques and instrumentation.
Calculations • 1. Compute the average optical density (OD) for all duplicate wells. • 2. Calculate the percent bound (B/Bo) for each standard, control and unknown by dividing the OD of each well (B) by the average OD for the 0 (Bo). • 3. […]

[3] = Storage stability of melatonin in saliva samples; assay type: physicochemical; conditions: after 4 days at 2-8° C.
Experimental: Sample Handling and Preparation • After collection it is important to keep samples cold, to minimize bacterial growth in the specimen. Refrigerate sample within 30 minutes, and freeze at or below −20° C. within 4 hours of collection. […] On day of assay, thaw the saliva samples completely, vortex, and centrifuge at 1500×g (@3000 rpm) for 15 minutes. Centrifuging removes mucins and other particulate matter which may interfere with antibody binding, leading to falsely elevated results. Samples should be at room temperature before adding to assay plate. Pipette clear sample into appropriate wells. Re-freeze saliva samples as soon as possible after adding to the assay plate. Centrifuge/re-centrifuge saliva samples each time that they are thawed. Avoid more than 2 freeze-thaw cycles after the initial freeze/thaw.

Row | Compound | Cross Reactivity (%) [1] [%] | Cross Reactivity [2] [%] | Decrease of Melatonin levels [3] [%]
1 | NCCc1c[nH]c2ccc(O)cc12 [Serotonin] | <0.05 | <0.05 | –
2 | COc1cc2c(CCNC(C)=O)c[nH]c2cc1O [6-hydroxy melatonin] | <0.05 | <0.05 | –
3 | COc1cc2c(CCNC(C)=O)c[nH]c2cc1Cl [6-chloro melatonin] | 5.40 | 5.40 | –
4 | COc1ccc(NC=O)c(C(=O)CCNC(C)=O)c1 [AFMK, N^1-acetyl-N^2-formyl-5-methoxykynuramine] | 16.5 | 16.5 | –
5 | COc1ccc2[nH]cc(CCNC(C)=O)c2c1 [Melatonin, N-acetyl-5-methoxytryptamine] | – | – | ≥ 20
6 | COc1ccc2[nH]cc(CCN)c2c1 [5-methoxy tryptamine] | <0.05 | <0.05 | –
7 | CC(=O)NCCc1c[nH]c2ccc(O)cc12 [N-acetyl serotonin] | <0.05 | <0.05 | –
8 | Cn1c(=O)c2c(ncn2C)n(C)c1=O [Caffeine] | <0.05 | <0.05 | –
9 | N[C@@H](Cc1c[nH]c2ccccc12)C(=O)O [L-Tryptophan] | <0.05 | <0.05 | –
10 | COc1ccc2[nH]cc(CCO)c2c1 [5-methoxy tryptophol] | 1.30 | 1.25 | –
